“Also recorded” adds a separate entry of the source. Residues, ends and D or L forms follow the SMILES beside them. *: point of attachment. Biotin = O=C1N[C@H]2[C@H](CS[C@H]2CCCCC(=O)*)N1; Ahx = NCCCCCC(=O)O

Series [1] has as its target T1, GST-UbcH10 (Homo sapiens, UniProt O00762).
T1 construct: made in house; host or cells: E. coli BL21 (DE3) RP
T1 sequence (O00762 1-179): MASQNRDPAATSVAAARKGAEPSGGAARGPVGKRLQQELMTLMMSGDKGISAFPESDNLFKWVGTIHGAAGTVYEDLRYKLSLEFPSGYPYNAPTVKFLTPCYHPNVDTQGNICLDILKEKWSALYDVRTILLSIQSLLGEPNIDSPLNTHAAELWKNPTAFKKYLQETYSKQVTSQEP
Briefly: ELISA binding of biotinylated peptides to coated GST-UbcH10. The following applies: for binding to UbcH10, in words: ELISA on recombinant GST-UbcH10, biotinylated peptides; for Kd / KD (µM): ELISA, wells coated overnight at 4°C with 100 µg/ml GST-UbcH10 in PBS 1X, 1 mM TCEP, biotinylated peptides at 2.2, 11, 22, 44, 108 µM in PBS 1X (1 mM TCEP for U1 and ScrU1), streptavidin-HRP, OPD, read at 490 nm, GraphPad Prism. The procedure: The PCR product was cloned into pGEX-4T1 expression vector (GE Healthcare), leading to a protein with a cleavable N-terminal GST tag (GST-UbcH10). E. coli BL21 (DE3) RP strain was transformed with the recombinant plasmid for GST-UbcH10. Overnight cultures were used to inoculate 500 ml LB medium containing 50 µg/ml ampicillin, and protein induction was performed by the addition of 1 mM IPTG at 22°C when an OD600 value of 0.7 was reached. After approximately 16 h the cells were harvested and the proteins were isolated by sonicating cell pellets resuspended in 30 ml PBS1X in the presence of an EDTA free protease inhibitor cocktail (Roche Diagnostics). The crude cell extract was cleared by centrifugation at 18000 rpm and the supernatant was loaded onto a 1 ml GST-trap column connected to AKTA FPLC system (GE-Healthcare) equilibrated with binding buffer PBS1X. After washing with ten volumes of binding buffer, a single elution step was performed with 50 mM TrisHCl, 10 mM reduced glutathione. The fractions containing GST-UbcH10 were pooled and extensively dialyzed against PBS1X at 4°C. The homogeneity of the protein was tested by SDS–PAGE and mass spectrometry.
Wells were coated overnight at 4°C with 100 µg/ml GST-UbcH10 in PBS 1X, 1 mM TCEP, in the presence of an EDTA free protease inhibitor cocktail (Roche Diagnostics). Binding step was performed with different concentrations of biotinylated peptides L1, L2, ScrL2, U1, ScrU1, S2 (2.2, 11, 22, 44, 108 µM) in PBS 1X (with 1 mM TCEP for U1 and ScrU1). A blocking solution 1% BSA in PBS 1X, 0.05% Tween-20 was used. Washes were executed with PBS 1X, 0.05% Tween-20. To verify the interaction a 1∶10000 dilution of horseradish peroxidase-conjugated streptavidin (Sigma Aldrich) in 0.3% BSA, PBS 1X was incubated for 1 hour. The colorimetric reaction was carried out with SIGMA-FAST OPD reagent (Sigma Aldrich), according to the manufacturer's instructions. Finally, readings were performed at 490 nm on a Model680 MicroplateReader (Bio-Rad, Hercules, CA-USA), and data were recorded by Microplate Manager 5.2 program and elaborated by GraphPad Prism program. Negative control experiments with the fusion tag GST in coating were performed in the same conditions described above.
On the basis of the 3D model of the quaternary complex, we have designed six peptides as molecular probes in order to calibrate their ability to interfere the binding of UbcH10. This strategy was motivated by two main reasons. First, the identification of short peptides that mediate protein-protein interaction seemed a priori effective for disrupting the protein-protein recognition and binding. While other strategies, i.e. introduction of specific mutations, may also be envisaged, it is unclear whether single-point mutants might lead to a significant destabilization of the complex or even to impede the formation of the quaternary complex. Second, since our ultimate goal is the design of compounds that might disrupt the ubiquitilation process, testing a series of suitably chosen short peptides represents a valuable proof-of-concept for supporting the potential therapeutic effect of peptidomimetics. Specifically, the peptides were designed to examine the capability of hUbA1 stretches that contribute to the protein-protein interface with UbcH10 (Figure S7). In particular, we have designed two peptides per interface, which will be denoted S for SCCH region, L for cross loop, and U for UFD (Table 4). In the UFD region peptides U1 and U2 were selected to test the relevance of the acidic residues in mediating the binding of the UbcH10 H1 helix. […] Finally, peptides L1 and L2 were chosen to explore the role of the cross loop region in assisting the interaction with UbcH10. All the peptides were synthesized as biotinylated derivatives by solid phase method and purified by RP-HPLC. Unfortunately, S1 and U2 were insoluble and so not testable in binding assays. […]
On the technique in general: An ELISA detects its analyte on a solid surface through an enzyme-linked reagent.

Series [2] can be described thus: Solubility of the synthesized peptides (testability in binding assays). The format is physicochemical. The following applies: for Solubility: biotinylated peptide, not testable in binding assays; for solubility, in words: biotinylated peptides. From the text:
On the basis of the 3D model of the quaternary complex, we have designed six peptides as molecular probes in order to calibrate their ability to interfere the binding of UbcH10. This strategy was motivated by two main reasons. First, the identification of short peptides that mediate protein-protein interaction seemed a priori effective for disrupting the protein-protein recognition and binding. While other strategies, i.e. introduction of specific mutations, may also be envisaged, it is unclear whether single-point mutants might lead to a significant destabilization of the complex or even to impede the formation of the quaternary complex. Second, since our ultimate goal is the design of compounds that might disrupt the ubiquitilation process, testing a series of suitably chosen short peptides represents a valuable proof-of-concept for supporting the potential therapeutic effect of peptidomimetics. Specifically, the peptides were designed to examine the capability of hUbA1 stretches that contribute to the protein-protein interface with UbcH10 (Figure S7). In particular, we have designed two peptides per interface, which will be denoted S for SCCH region, L for cross loop, and U for UFD (Table 4). In the UFD region peptides U1 and U2 were selected to test the relevance of the acidic residues in mediating the binding of the UbcH10 H1 helix. […] Finally, peptides L1 and L2 were chosen to explore the role of the cross loop region in assisting the interaction with UbcH10. All the peptides were synthesized as biotinylated derivatives by solid phase method and purified by RP-HPLC. Unfortunately, S1 and U2 were insoluble and so not testable in binding assays. The ability of the soluble peptides to bind recombinant GST-UbcH10 was checked by ELISA, utilizing GST as control (data not shown).

In series [3] the target is T2, GST-UbcH10 (UniProt O00762 1-179).
T2 construct: UbcH10, a Ubiquitin Conjugation Enzyme (E2); PCR product cloned into pGEX-4T1; The GST tag is cleavable but the fusion GST-UbcH10 was coated on the wells; PDB 1I7K (used only for modelling) lacks the first 30 residues and has Ser114; nothing says that the ELISA construct has these limits; also called E2; recombinant GST-UbcH10; source: E. coli BL21 (DE3) RP, purified (GST-trap column, dialysed …)
T2 sequence (looked up): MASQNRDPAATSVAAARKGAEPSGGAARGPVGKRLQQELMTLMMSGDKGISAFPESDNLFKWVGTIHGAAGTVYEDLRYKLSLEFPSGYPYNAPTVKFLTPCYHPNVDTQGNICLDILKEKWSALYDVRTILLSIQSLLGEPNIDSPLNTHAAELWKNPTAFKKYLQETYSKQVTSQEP
Briefly: ELISA; wells coated overnight at 4°C with 100 µg/ml GST-UbcH10 in PBS, 1 mM TCEP; biotinylated peptides at 2.2, 11, 22, 44, 108 µM in PBS (1 mM TCEP for U1 and ScrU1); detection with streptavidin-HRP, reading at 490 nm; apparent KD. The following applies: both partners purified.

For `CC(C)C[C@H](NC(=O)[C@H](CCC(=O)O)NC(=O)CCCCCNC(=O)CCCC[C@@H]1SC[C@@H]2NC(=O)N[C@@H]21)C(=O)N[C@@H](CC(N)=O)C(=O)N[C@@H](CS)C(=O)N[C@@H](CC(=O)O)C(=O)N[C@H](C(=O)N[C@@H](CCC(=O)O)C(=O)N[C@H](C(=O)N[C@@H](CCC(=O)O)C(=O)NCC(=O)N[C@@H](CO)C(=O)N[C@@H](CC(=O)O)C(=O)N[C@@H](CS)C(N)=O)C(C)C)C(C)C` [ScrU1] ({Biotin-Ahx}-ELNCDVEVEGSDC-NH2), in series [1], the “binding to UbcH10, in words” value is reported as “very poor binding” and the Kd is > 100 µM.

With `C[C@@H](O)[C@H](NC(=O)[C@H](CCCCN)NC(=O)[C@H](CO)NC(=O)[C@@H]1CCCN1C(=O)[C@H](CC(=O)O)NC(=O)[C@H](CO)NC(=O)CCCCCNC(=O)CCCC[C@@H]1SC[C@@H]2NC(=O)N[C@@H]21)C(=O)N[C@@H](CO)C(=O)N[C@@H](CCC(=O)O)C(=O)N[C@@H](Cc1ccc(O)cc1)C(=O)N[C@@H](CCC(N)=O)C(=O)N1CCC[C@H]1C(=O)N[C@@H](CO)C(=O)N[C@@H](CCC(=O)O)C(N)=O` [ScrL2] ({Biotin-Ahx}-SDPSKTSEYQPSE-NH2), in series [1], the “binding to UbcH10, in words” value was “very poor binding” and the Kd is > 80 µM.

For “LELCCNDESGEDV [U2, peptide from hUbA1 UFD region, residues 1036-1048, biotinylated derivative]”, in series [2], the “Solubility” value is “Not soluble” and the “solubility, in words” value is “insoluble; also recorded: low solubility”.

As to “SQDPPEKSIPI [L1, peptide from hUbA1 cross loop, residues 621-631, biotinylated derivative]”, in series [1], the “binding to UbcH10, in words” value is given as “low affinity” and the “KD (µM)” value is reported as “No binding”.

On to “IHVSDQELQSA [S1, peptide from hUbA1 SCCH region (Cys-cap), residues 807-817, biotinylated derivative]”, for which, in series [2], the “Solubility” value is on record as “Not soluble” and the “solubility, in words” value was “insoluble”.

Turning to “RDEFEGLFKQPAEN [S2, peptide corresponding to helix H19 in the hUbA1 SCCH region, residues 649-662, designed as negative control]”, in series [1], the “KD (µM)” value was “No binding”.

B1: L2 peptide (hUbA1 cross loop, 615-627) (peptide)
peptide: {Biotin-Ahx}-TESYSSSQDPPEK-NH2
SMILES: C[C@@H](O)[C@H](NC(=O)CCCCCNC(=O)CCCC[C@@H]1SC[C@@H]2NC(=O)N[C@@H]21)C(=O)N[C@@H](CCC(=O)O)C(=O)N[C@@H](CO)C(=O)N[C@@H](Cc1ccc(O)cc1)C(=O)N[C@@H](CO)C(=O)N[C@@H](CO)C(=O)N[C@@H](CO)C(=O)N[C@@H](CCC(N)=O)C(=O)N[C@@H](CC(=O)O)C(=O)N1CCC[C@H]1C(=O)N1CCC[C@H]1C(=O)N[C@@H](CCC(=O)O)C(=O)N[C@@H](CCCCN)C(N)=O
notes: human UbA1 (E1), cross loop region, residues 615-627; source: synthetic peptide (Fmoc solid phase, RP-HPLC purified)
For B1, the Kd in series [3] worked out at 20 µM.

B2: U1-scrambled peptide (peptide)
peptide: {Biotin-Ahx}-ELNCDVEVEGSDC-NH2
modifications: cysteine pairing not given here
notes: scrambled order of the residues of peptide U1; also called ScrU1; source: synthetic peptide (Fmoc solid phase, RP-HPLC purified)
Consider B2, for which the Kd in series [3] was > 100 µM.

B3: U1 peptide (hUbA1 UFD region, 1038-1050) (peptide)
peptide: {Biotin-Ahx}-LCCNDESGEDVEV-NH2
modifications: cysteine pairing not given here
notes: human UbA1 (E1), UFD region, residues 1038-1050; source: synthetic peptide (Fmoc solid phase, RP-HPLC purified)
As to B3, the Kd in series [3] turned out to be 10 µM.

B4: L2-scrambled peptide (peptide)
peptide: {Biotin-Ahx}-SDPSKTSEYQPSE-NH2
SMILES: C[C@@H](O)[C@H](NC(=O)[C@H](CCCCN)NC(=O)[C@H](CO)NC(=O)[C@@H]1CCCN1C(=O)[C@H](CC(=O)O)NC(=O)[C@H](CO)NC(=O)CCCCCNC(=O)CCCC[C@@H]1SC[C@@H]2NC(=O)N[C@@H]21)C(=O)N[C@@H](CO)C(=O)N[C@@H](CCC(=O)O)C(=O)N[C@@H](Cc1ccc(O)cc1)C(=O)N[C@@H](CCC(N)=O)C(=O)N1CCC[C@H]1C(=O)N[C@@H](CO)C(=O)N[C@@H](CCC(=O)O)C(N)=O
notes: scrambled order of the residues of peptide L2; also called ScrL2; source: synthetic peptide (Fmoc solid phase, RP-HPLC purified)
For the molecule B4, in series [3], the Kd is > 80 µM.

Values taken from article PMC4223017, “Structural Model of the hUbA1-UbcH10 Quaternary Complex: In Silico and Experimental Analysis of the Protein-Protein Interactions between E1, E2 and Ubiquitin” (PLoS ONE, 2014).
